According to patent publication US20100330677A1, “Improved Reprogramming of Mammalian Cells, and Cells Obtained” (Cambridge Enterprise Limited, priority 2008, published 2010):

How the values were obtained:
pre-iPS cells = assay: Adding inhibitors to pre-iPS cells in the presence of foetal calf serum plus LIF; assay type: cell-based, mouse; conditions: for effect on Oct4-GFP activation: foetal calf serum plus LIF, inhibitor alone
Excerpt: We also examined the effect of adding inhibitors in the presence of foetal calf serum plus LIF. The addition of 2i induced stable activation of Oct4-GFP in around 10% of emerging colonies. […] The reduced frequency compared with serum-free 2i culture may be because the ability of PD0325901 to suppress Erk activation is counteracted by serum factors.

[1] = test system: Oct4-GFP expressing I-iPS cells; assay: Oct4-GFP reporter activity of partially reprogrammed cells cultured in Fgf2 and activin, with activin receptor inhibitor; assay type: cell-based, mouse; conditions: serum free
Excerpt: Culture of FACS purified GFP expressing incomplete (I) iPS cells in Fgf2 and activin (left) and subsequently on addition of activin receptor inhibitor SB431542 (right). To further investigate the phenotype of these partially reprogrammed cells we assessed Oct4 reporter activity in different culture environments. In conventional ES cell culture using the self renewal cytokine Leukaemia Inhibitory Factor (LIF) and serum in presence or absence of feeders, Oct4-GFP expression was not maintained. In contrast, reporter expression stabilized when cells were cultured serum free in the presence of Fgf2 and activin (FIG. 2). These are conditions used for the propagation of EpiSCs derived from post-implantation embryos (Brons et al., 2007; Tesar et al., 2007). […] We conclude that NS cells are efficiently converted by the reprogramming factors into a heterogeneous cell population with certain properties of EpiSCs rather than ES cells.

Structure (SMILES)	effect on Oct4-GFP activation (pre-iPS cells)	expression of Nanog and Rex1 (pre-iPS cells; cells expanded in serum and LIF)	effect of inhibitor on Oct4-GFP reporter activity and cells [1]
Cc1c[nH]c(-c2cnc(NCCNc3ccc(C#N)cn3)nc2-c2ccc(Cl)cc2Cl)n1 [GSK3 inhibitor, CHIR99021]	no discernible effect	–	–
O=C(NOC[C@H](O)CO)c1ccc(F)c(F)c1Nc1ccc(I)cc1F [MEK inhibitor, PD0325901]	comparable to 2i	acquired expression of Nanog and Rex1	–
NC(=O)c1ccc(-c2nc(-c3ccc4c(c3)OCO4)c(-c3ccccn3)[nH]2)cc1 [SB43154212, SB431542]	–	–	loss of reporter activity, cell death and differentiation
